Among the test systems are Acinetobacter baumannii; Aeromonas veronii CL0901; Staphylococcus hyicus; Escherichia coli; Staphylococcus aureus; Bacillus subtilis DELTA.
Holding throughout (assay): ≥ marks a high value that may be exact or a test limit, other limits are often not marked, values filed in µg/mL are converted to µM
Assay [1] relates to Bacillus subtilis ATCC 6051.
In assay [2] the test system is Escherichia coli NEB5alpha.
Assay [3] has as its system Acinetobacter baumannii ATCC 19606.
The subject of assay [4] is Bacillus subtilis NBRC 3009.
In assay [5] the test system is Escherichia coli NBRC 3972.
Assay [6] has as its system Staphylococcus aureus NBRC 13276.
Assay [7] concerns Candida albicans ATCC 10231.
Assay [8] concerns Cryptococcus neoformans ATCC 32264.
Assay [9] concerns Aeromonas veronii ATCC 35624.
Assay [10] relates to Aeromonas veronii X-1-06909.
For assay [11], the system named is Candida albicans CMCC 98001.
Assay [12] concerns Escherichia coli CVCC 1515.
Assay [13] relates to Escherichia coli CVCC 195.
Assay [14] concerns Escherichia coli CVCC 25922.
Assay [15] has as its system Escherichia coli CVCC O157.
The subject of assay [16] is Pseudomonas aeruginosa CICC 21630.
The test system of assay [17] is Salmonella enterica subsp. enterica serovar Enteritidis CVCC 3377.
Assay [18] deals with Salmonella enterica subsp. enterica serovar Pullorum CVCC 1789.
For assay [19], the system named is Salmonella enterica subsp. enterica serovar Pullorum CVCC 1809.
Assay [20] relates to Salmonella enterica subsp. enterica serovar Pullorum CVCC 533.
The subject of assay [21] is Salmonella enterica subsp. enterica serovar Typhimurium ATCC 14028.
The test system of assay [22] is Staphylococcus aureus ATCC 25923.
Assay [23] relates to Staphylococcus aureus ATCC 43300.
For assay [24], the system named is Staphylococcus aureus ATCC 546.
For assay [25], the system named is Staphylococcus hyicus NCTC 10350.
Assay [26] relates to Bifidobacterium longum subsp. infantis.
Assay [27] has as its system Escherichia coli DH5alpha.
The subject of assay [28] is Zymomonas mobilis ATCC 10988.
Assay [29] deals with Acinetobacter baumannii ATCC 7978.
Assay [30] deals with Klebsiella aerogenes ATCC 13048.
The subject of assay [31] is Klebsiella pneumoniae WGLW2.
Assay [32] has as its system Staphylococcus aureus ATCC 29231.
For assay [33], the system named is Staphylococcus aureus MW2.

For seven molecules, MIC results are on record in DBAASP.

SMILES strings stand for the structures. ≈ marks a conversion by molar mass, not a printed value. A value given as a limit tells only on which side of the number the result lay.

As usually defined, the MIC is the least concentration at which growth counts as inhibited. The low end stands for greater potency, the high end for weaker potency. For the molecule `CC(C)C[C@H](NC(=O)[C@H](C)NC(=O)[C@H](CC(=O)O)NC(=O)[C@H](CCC(=O)O)NC(=O)[C@H](CC(C)C)NC(=O)[C@H](Cc1ccccc1)NC(=O)[C@H](CC(=O)O)NC(=O)[C@@H](N)CCCN=C(N)N)C(=O)N[C@@H](CC(N)=O)C(=O)O` [RDFLEDALN], the MIC is no less than 500 µM in [1] and no less than 1000 µM in assay [2].
With `CC[C@H](C)[C@H](NC(=O)[C@H](CO)NC(=O)[C@H](Cc1ccccc1)NC(=O)[C@H](CC(C)C)NC(=O)[C@H](CO)NC(=O)CNC(=O)[C@H](CC(C)C)NC(=O)[C@@H](N)Cc1ccccc1)C(=O)NCC(=O)N[C@@H](CO)C(=O)N[C@@H](CCCCN)C(=O)N[C@@H](CC(C)C)C(=O)N[C@@H](CC(C)C)C(=O)N1CCC[C@H]1C(=O)NCC(=O)N[C@H](C(=O)N[C@H](C(=O)N[C@@H](CCCCN)C(=O)N[C@@H](CC(C)C)C(=O)N[C@@H](Cc1ccccc1)C(=O)N[C@@H](CCC(N)=O)C(=O)N[C@@H](CCCN=C(N)N)C(=O)N[C@@H](CCCCN)C(=O)N[C@@H](CCCCN)C(=O)N[C@@H](CCC(N)=O)C(N)=O)[C@@H](C)CC)C(C)C` [FLGSLFSIGSKLLPGVIKLFQRKKQ], the MIC in assay [3] is 0.9 µM (≈ 2.52 µg/mL); with Acinetobacter baumannii it was 1.8 µM (≈ 5.05 µg/mL); in assay [4], 0.707 µM (≈ 1.98 µg/mL); in assay [5], 10 µM (≈ 28 µg/mL); in assay [6] it was 3.54 µM (≈ 9.92 µg/mL).
For `C[C@H](N)C(=O)N[C@@H](CCC(N)=O)C(=O)N[C@@H](Cc1c[nH]c2ccccc12)C(=O)N[C@@H](CCCN=C(N)N)C(=O)N[C@@H](CCCN=C(N)N)C(=O)N[C@@H](Cc1c[nH]c2ccccc12)C(=O)N[C@@H](Cc1c[nH]c2ccccc12)C(=O)N[C@@H](CCC(N)=O)C(=O)N[C@@H](Cc1c[nH]c2ccccc12)C(=O)N[C@@H](CCCN=C(N)N)C(=O)N[C@@H](CCCN=C(N)N)C(N)=O` [AQWRRWWQWRR], the MIC came to 50 µM (≈ 85.7 µg/mL) in assay [7] and 25 µM (≈ 42.8 µg/mL) in [8].
Take `CC(C)[C@@H]1NC(=O)CNC(=O)[C@H](CC(N)=O)NC(=O)[C@H](CCCN=C(N)N)NC(=O)[C@H](Cc2ccc(O)cc2)NC(=O)[C@H](C(C)C)NC(=O)[C@@H](NC(=O)[C@@H](NC(=O)[C@H](CC(N)=O)NC(=O)[C@H](Cc2c[nH]c3ccccc23)NC(=O)[C@H](C)NC(=O)[C@H](Cc2ccccc2)NC(=O)CN)C(C)C)CSSC[C@@H](C(=O)N[C@@H](Cc2cnc[nH]2)C(=O)N[C@@H](CCCN=C(N)N)C(=O)N2CCC[C@H]2C(=O)N[C@@H](C)C(=O)N[C@@H](CC(N)=O)C(N)=O)NC(=O)[C@H](C(C)C)NC(=O)[C@H](CCCN=C(N)N)NC1=O` [GFAWNVCVYRNGVRVCHRPAN]: the MIC in assay [9] is 26.5 µM (≈ 63.9 µg/mL); with Aeromonas veronii CL0901, 26.5 µM (≈ 63.9 µg/mL); in [10], 26.5 µM (≈ 63.9 µg/mL); in [11], no less than 52.9 µM; in [12], 1.65 µM (≈ 4 µg/mL); in assay [13], 3.31 µM (≈ 7.99 µg/mL). Further, the MIC in [14] is 3.31 µM (≈ 7.99 µg/mL); in assay [15] it was 3.31 µM (≈ 7.99 µg/mL); in assay [16], 26.5 µM (≈ 63.9 µg/mL); in [17], 0.827 µM (≈ 2 µg/mL); in assay [18] it was 6.62 µM (≈ 16 µg/mL); in assay [19], 3.31 µM (≈ 7.99 µg/mL). The MIC is 13.2 µM (≈ 32 µg/mL) in assay [20]; 6.62 µM (≈ 16 µg/mL) in [21]; greater than 26.5 µM in assay [22]; greater than 26.5 µM in [23]; 26.5 µM (≈ 63.9 µg/mL) in assay [24]; no less than 52.9 µM in [25]. Moreover, the MIC with Staphylococcus hyicus stood at 26.5 µM (≈ 63.9 µg/mL).
With `CSCC[C@H](NC(=O)[C@@H](N)CC(=O)O)C(=O)N[C@@H](CC(C)C)C(=O)N[C@H](C(=O)N[C@H](C(=O)N[C@@H](CC(=O)O)C(=O)N1CCC[C@H]1C(=O)N[C@@H](CCCCN)C(=O)O)C(C)C)C(C)C` [DMLVVDPK], the MIC in assay [26] is no less than 3270 µM; in the assay with Escherichia coli, 3270 µM (≈ 3000 µg/mL); in the assay with Staphylococcus aureus it was 3270 µM (≈ 3000 µg/mL).
As for `CC[C@H](C)[C@H](NC(=O)[C@H](CCCN=C(N)N)NC(=O)[C@H](CCC(N)=O)NC(=O)[C@@H](NC(=O)[C@@H](NC(=O)[C@H](CCCN=C(N)N)NC(=O)[C@H](CCCCN)NC(=O)[C@H](Cc1ccccc1)NC(C)=O)[C@@H](C)CC)C(C)C)C(=O)N[C@@H](CCCN=C(N)N)C(=O)N[C@@H](CC(=O)O)C(=O)N[C@@H](Cc1ccccc1)C(=O)N[C@@H](CC(C)C)C(=O)N[C@@H](CCCN=C(N)N)C(N)=O` [FKRIVQRIRDFLR], the MIC is 22.9 µM (≈ 40.9 µg/mL) against Bacillus subtilis DELTA, no less than 57.2 µM in [27] and no less than 114 µM in [28].
As for `CC[C@H](C)[C@H](NC(=O)[C@H](CCCCN)NC(=O)[C@H](Cc1c[nH]c2ccccc12)NC(=O)[C@@H](N)CC(C)C)C(=O)NCC(=O)N[C@@H](CCCCN)C(=O)N[C@@H](CCCCN)C(=O)N[C@H](C(=O)N[C@@H](Cc1c[nH]c2ccccc12)C(=O)N[C@@H](CCCN=C(N)N)C(=O)N[C@H](C(=O)NCC(=O)N[C@@H](Cc1c[nH]c2ccccc12)C(=O)N[C@@H](CC(N)=O)C(=O)N[C@@H](Cc1c[nH]c2ccccc12)C(=O)N[C@@H](CCCN=C(N)N)C(=O)O)C(C)C)[C@@H](C)CC` [LWKIGKKIWRVGWNWR], the MIC is 7.25 µM (≈ 15.4 µg/mL) in [29]; no less than 60.2 µM in assay [30]; 30.1 µM (≈ 64 µg/mL) in assay [31]; 30.1 µM (≈ 64 µg/mL) in [32]; 30.1 µM (≈ 64 µg/mL) in [33].
